For 6 molecules, ΔTm results are on record in ChEMBL document CHEMBL1145498, “A systematic interaction map of validated kinase inhibitors with Ser/Thr kinases” (Proc Natl Acad Sci U S A, 2007).

Experiment [1] addresses Calcium/calmodulin-dependent protein kinase type II subunit alpha (Homo sapiens) (UniProt Q9UQM7).
Experiment [2] concerns the target Calcium/calmodulin-dependent protein kinase type II subunit beta (Homo sapiens) (UniProt Q13554).
Experiment [3] deals with Cyclin-dependent kinase 2 (Homo sapiens, UniProt P24941).
Experiment [4] deals with Cyclin-dependent kinase 6 (Homo sapiens) (UniProt Q00534).
In experiment [5] the target is Cyclin-dependent kinase-like 1 (Homo sapiens) (UniProt Q00532).
Cyclin-dependent kinase-like 1 (Homo sapiens), sequence (Q00532 whole entry): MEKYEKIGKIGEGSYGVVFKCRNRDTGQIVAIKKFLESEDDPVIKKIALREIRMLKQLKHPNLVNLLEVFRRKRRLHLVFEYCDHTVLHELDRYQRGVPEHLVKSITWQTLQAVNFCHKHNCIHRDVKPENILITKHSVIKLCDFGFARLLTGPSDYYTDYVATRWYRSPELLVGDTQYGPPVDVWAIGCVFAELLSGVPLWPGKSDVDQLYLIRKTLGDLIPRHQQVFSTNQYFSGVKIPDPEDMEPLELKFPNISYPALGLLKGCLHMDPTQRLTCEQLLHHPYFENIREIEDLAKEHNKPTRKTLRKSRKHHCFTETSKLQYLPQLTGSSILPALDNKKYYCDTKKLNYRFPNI
The target of experiment [6] is Dual specificity protein kinase CLK2 (Homo sapiens) (UniProt P49760).
Dual specificity protein kinase CLK2 (Homo sapiens), sequence (P49760 whole entry, looked up, canonical isoform): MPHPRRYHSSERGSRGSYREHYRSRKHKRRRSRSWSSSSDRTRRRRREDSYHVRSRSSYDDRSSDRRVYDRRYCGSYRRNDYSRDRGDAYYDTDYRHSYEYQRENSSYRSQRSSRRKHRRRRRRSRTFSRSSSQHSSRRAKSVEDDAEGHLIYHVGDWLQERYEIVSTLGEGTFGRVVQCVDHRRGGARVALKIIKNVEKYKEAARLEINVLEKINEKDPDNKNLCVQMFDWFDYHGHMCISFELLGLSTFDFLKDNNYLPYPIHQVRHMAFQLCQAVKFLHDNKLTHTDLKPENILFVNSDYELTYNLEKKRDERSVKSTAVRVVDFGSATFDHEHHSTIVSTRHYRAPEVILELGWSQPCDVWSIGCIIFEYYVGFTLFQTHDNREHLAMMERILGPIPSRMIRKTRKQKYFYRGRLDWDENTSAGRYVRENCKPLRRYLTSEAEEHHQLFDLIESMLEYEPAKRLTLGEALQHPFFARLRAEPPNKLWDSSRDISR
Experiment [7] addresses Casein kinase I isoform gamma-1 (Homo sapiens) (UniProt Q9HCP0).
In experiment [8] the target is Casein kinase I isoform gamma-2 (Homo sapiens) (UniProt P78368).
The target in experiment [9] is Glycogen synthase kinase-3 beta (Homo sapiens, UniProt P49841).
Experiment [10] deals with T1, Mitogen-activated protein kinase kinase kinase 5 (Homo sapiens) (UniProt Q99683).
T1 sequence (whole entry): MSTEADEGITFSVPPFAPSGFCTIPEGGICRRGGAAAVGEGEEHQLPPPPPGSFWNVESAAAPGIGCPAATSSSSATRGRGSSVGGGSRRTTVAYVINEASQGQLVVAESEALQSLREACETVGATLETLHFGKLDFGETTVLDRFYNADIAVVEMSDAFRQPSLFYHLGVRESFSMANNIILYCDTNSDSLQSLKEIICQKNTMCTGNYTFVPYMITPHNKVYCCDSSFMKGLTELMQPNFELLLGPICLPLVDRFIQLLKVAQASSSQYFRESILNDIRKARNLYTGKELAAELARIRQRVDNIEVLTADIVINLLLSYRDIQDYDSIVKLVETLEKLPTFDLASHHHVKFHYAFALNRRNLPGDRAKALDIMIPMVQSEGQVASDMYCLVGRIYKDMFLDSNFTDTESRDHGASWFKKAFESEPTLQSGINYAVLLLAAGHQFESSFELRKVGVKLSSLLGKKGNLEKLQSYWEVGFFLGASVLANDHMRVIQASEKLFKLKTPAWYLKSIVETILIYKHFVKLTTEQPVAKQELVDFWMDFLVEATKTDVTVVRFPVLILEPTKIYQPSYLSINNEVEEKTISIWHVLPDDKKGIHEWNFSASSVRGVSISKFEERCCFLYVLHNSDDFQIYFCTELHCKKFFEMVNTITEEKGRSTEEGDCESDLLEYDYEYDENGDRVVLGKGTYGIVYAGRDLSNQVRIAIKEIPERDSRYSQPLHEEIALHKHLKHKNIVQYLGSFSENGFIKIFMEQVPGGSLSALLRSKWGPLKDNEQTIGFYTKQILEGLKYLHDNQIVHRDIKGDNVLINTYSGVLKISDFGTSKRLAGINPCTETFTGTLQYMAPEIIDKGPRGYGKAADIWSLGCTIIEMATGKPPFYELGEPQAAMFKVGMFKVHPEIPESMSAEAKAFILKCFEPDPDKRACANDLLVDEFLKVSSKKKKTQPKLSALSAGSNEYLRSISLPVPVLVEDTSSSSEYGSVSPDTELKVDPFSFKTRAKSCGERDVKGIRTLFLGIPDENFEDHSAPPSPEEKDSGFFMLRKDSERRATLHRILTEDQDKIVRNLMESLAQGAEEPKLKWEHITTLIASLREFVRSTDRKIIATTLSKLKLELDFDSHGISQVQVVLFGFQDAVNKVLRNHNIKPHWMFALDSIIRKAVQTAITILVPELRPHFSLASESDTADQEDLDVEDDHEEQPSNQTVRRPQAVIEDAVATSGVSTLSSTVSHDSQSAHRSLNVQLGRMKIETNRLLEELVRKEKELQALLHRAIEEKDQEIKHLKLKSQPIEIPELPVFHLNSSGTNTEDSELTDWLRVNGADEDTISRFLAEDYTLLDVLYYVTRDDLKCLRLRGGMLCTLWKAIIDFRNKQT

Experiment [11] has as its target Mitogen-activated protein kinase 6 (Homo sapiens) (UniProt Q16659).
The target of experiment [12] is Serine/threonine-protein kinase 26 (Homo sapiens) (UniProt Q9P289).
For experiment [13], the target named is Serine/threonine-protein kinase OSR1 (Homo sapiens) (UniProt O95747).
Serine/threonine-protein kinase OSR1 (Homo sapiens), sequence (O95747 2-527 limits assumed): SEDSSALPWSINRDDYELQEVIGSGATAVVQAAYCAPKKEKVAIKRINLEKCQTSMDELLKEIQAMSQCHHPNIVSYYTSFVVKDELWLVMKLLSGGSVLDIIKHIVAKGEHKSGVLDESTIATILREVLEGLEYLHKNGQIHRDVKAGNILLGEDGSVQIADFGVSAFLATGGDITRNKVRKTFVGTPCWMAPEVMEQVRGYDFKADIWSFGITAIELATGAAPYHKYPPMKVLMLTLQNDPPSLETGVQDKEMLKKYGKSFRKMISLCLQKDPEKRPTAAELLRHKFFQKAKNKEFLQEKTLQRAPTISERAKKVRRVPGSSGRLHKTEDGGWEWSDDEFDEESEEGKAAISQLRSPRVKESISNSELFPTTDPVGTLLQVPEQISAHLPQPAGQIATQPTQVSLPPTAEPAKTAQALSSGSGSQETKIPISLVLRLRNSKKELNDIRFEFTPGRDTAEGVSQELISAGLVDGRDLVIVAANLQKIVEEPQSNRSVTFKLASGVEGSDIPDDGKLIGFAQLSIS
Experiment [14] deals with Serine/threonine-protein kinase PAK 6 (Homo sapiens) (UniProt Q9NQU5).
Experiment [15] has as its target Serine/threonine-protein kinase pim-1 (Homo sapiens) (UniProt P11309).
Experiment [16] concerns the target Serine/threonine-protein kinase pim-2 (Homo sapiens, UniProt Q9P1W9).
Experiment [17] addresses Ribosomal protein S6 kinase alpha-3 (Homo sapiens) (UniProt P51812).
Experiment [18] has as its target Serine/threonine-protein kinase 16 (Homo sapiens) (UniProt O75716).
In experiment [19] the target is T2, Serine/threonine-protein kinase 17A (Homo sapiens) (UniProt Q9UEE5).
T2 sequence (whole entry): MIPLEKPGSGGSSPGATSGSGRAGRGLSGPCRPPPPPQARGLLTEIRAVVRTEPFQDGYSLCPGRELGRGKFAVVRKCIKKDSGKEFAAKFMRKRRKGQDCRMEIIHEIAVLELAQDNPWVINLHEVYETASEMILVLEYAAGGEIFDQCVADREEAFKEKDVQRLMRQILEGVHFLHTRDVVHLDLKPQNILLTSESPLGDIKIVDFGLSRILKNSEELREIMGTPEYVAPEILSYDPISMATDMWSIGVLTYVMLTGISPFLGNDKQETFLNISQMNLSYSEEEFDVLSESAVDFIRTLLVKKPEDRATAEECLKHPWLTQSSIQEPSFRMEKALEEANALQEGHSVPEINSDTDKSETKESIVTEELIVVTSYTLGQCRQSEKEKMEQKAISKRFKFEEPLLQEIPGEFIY

Experiment [20] addresses TRAF2 and NCK-interacting protein kinase (Homo sapiens) (UniProt Q9UKE5).
The target of experiment [21] is Serine/threonine-protein kinase VRK2 (Homo sapiens) (UniProt Q86Y07).

One may read the ΔTm as the shift of the melting midpoint relative to a reference.

Calcium/calmodulin-dependent protein kinase type II subunit alpha (Homo sapiens), sequence (Q9UQM7 whole entry): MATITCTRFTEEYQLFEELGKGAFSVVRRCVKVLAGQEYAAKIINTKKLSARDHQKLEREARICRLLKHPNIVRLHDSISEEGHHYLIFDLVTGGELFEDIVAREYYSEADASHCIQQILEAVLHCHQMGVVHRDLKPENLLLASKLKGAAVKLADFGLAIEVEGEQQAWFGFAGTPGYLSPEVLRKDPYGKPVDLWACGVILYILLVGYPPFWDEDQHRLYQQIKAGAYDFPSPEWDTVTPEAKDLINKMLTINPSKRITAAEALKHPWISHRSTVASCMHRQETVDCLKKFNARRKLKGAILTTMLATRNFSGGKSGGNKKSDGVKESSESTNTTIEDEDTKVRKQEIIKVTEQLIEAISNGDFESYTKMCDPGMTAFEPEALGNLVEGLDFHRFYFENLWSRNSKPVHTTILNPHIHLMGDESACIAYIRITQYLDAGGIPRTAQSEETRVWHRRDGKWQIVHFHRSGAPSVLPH
Serine/threonine-protein kinase 16 (Homo sapiens), sequence (O75716 whole entry): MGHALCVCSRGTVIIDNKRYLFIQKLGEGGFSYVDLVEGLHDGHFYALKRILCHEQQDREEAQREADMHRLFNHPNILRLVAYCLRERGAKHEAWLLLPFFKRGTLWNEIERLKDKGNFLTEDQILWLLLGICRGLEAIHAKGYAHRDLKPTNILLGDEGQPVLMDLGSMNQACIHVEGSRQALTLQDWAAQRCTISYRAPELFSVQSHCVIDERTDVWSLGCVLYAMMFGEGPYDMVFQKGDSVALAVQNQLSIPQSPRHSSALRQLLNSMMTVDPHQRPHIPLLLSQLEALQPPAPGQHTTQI
Casein kinase I isoform gamma-1 (Homo sapiens), sequence (Q9HCP0 whole entry, looked up, canonical isoform): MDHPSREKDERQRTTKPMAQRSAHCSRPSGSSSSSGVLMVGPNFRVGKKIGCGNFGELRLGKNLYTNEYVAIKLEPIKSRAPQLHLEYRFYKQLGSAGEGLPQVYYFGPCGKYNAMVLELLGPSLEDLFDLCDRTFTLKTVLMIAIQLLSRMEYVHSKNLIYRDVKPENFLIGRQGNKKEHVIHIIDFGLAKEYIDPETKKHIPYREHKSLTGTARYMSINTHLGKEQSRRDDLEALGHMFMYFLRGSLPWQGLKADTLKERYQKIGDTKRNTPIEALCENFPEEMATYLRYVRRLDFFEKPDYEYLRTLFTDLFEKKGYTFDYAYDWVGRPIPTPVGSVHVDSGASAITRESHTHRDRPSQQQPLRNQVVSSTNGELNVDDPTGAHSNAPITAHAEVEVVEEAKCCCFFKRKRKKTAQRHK
Mitogen-activated protein kinase 6 (Homo sapiens), sequence (Q16659 whole entry): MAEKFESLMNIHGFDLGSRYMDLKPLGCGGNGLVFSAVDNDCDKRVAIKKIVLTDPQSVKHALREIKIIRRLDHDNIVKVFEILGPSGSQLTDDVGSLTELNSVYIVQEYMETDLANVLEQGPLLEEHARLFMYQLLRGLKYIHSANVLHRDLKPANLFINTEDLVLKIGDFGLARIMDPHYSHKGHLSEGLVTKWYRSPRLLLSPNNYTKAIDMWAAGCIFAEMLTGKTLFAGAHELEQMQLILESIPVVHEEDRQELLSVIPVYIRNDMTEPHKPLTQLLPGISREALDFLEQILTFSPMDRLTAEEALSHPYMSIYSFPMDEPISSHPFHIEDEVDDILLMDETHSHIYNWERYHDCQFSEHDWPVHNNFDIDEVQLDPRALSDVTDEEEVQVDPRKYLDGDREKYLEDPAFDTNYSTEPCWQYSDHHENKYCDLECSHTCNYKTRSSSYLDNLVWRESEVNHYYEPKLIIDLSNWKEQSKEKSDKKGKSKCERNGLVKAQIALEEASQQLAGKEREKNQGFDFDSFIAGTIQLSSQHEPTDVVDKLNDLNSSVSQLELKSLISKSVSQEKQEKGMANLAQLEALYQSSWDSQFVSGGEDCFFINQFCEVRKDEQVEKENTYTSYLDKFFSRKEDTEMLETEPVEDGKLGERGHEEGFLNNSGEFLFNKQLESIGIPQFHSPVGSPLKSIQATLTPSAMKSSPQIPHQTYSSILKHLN
TRAF2 and NCK-interacting protein kinase (Homo sapiens), sequence (Q9UKE5 whole entry, looked up): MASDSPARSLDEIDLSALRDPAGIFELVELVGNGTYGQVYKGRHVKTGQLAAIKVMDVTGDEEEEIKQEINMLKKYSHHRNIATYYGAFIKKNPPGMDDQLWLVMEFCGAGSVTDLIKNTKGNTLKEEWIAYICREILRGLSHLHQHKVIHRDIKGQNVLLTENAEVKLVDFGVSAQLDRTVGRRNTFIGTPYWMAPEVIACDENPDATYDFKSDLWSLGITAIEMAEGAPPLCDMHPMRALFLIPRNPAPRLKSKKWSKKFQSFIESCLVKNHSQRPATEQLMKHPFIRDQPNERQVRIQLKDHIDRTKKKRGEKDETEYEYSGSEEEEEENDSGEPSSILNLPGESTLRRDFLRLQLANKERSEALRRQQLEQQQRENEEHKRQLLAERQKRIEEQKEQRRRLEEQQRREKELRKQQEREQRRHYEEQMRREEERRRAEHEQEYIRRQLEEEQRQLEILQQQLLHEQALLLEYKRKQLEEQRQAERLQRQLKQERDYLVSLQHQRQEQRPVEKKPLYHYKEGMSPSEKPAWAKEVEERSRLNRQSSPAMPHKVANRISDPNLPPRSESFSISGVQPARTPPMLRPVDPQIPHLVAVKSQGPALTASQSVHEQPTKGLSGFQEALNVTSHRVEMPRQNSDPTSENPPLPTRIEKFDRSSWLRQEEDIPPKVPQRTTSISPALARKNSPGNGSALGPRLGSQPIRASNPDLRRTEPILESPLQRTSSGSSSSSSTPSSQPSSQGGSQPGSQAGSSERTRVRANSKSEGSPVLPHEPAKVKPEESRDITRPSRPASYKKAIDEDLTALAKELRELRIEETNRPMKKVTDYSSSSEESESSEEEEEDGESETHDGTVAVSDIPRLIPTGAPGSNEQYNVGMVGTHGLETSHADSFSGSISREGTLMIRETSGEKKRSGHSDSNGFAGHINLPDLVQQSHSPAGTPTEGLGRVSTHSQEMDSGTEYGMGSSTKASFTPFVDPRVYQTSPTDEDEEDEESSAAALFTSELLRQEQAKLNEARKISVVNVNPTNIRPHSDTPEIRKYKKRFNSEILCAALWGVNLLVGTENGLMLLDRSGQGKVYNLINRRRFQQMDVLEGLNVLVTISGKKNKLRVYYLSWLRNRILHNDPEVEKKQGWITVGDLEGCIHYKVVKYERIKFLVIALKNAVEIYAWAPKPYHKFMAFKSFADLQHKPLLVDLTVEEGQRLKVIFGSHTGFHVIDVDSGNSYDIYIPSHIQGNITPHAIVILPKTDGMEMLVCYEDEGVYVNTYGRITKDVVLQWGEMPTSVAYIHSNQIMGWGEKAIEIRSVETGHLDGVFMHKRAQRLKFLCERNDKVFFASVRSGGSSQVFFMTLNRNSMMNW
Serine/threonine-protein kinase pim-1 (Homo sapiens), sequence (P11309 whole entry, looked up): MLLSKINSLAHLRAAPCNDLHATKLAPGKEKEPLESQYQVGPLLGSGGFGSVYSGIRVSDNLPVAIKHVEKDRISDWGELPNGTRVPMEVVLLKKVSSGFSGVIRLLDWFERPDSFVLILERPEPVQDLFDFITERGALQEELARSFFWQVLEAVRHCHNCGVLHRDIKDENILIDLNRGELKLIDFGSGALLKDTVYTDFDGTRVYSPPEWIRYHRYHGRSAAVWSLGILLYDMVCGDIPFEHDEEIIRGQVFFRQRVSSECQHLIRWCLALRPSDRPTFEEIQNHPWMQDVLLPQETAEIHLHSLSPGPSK

For `O=C1c2ccccc2-[n+]2ccc3c([nH]c4ccccc43)c21` [FASCAPLYSIN CHLORIDE], the ΔTm in experiment [1] was -0.5 °C; in [2], -2 °C; in [3], 0 °C; in experiment [4], 0.2 °C; in experiment [5], -0.5 °C; in experiment [6], -0.4 °C. The ΔTm is -0.6 °C in [7]; -0.3 °C in experiment [8]; 0.1 °C in [9]; -2.6 °C in experiment [10]; -1.9 °C in [11]; -0.8 °C in [12]. Besides, the ΔTm in experiment [13] was -1.5 °C; in experiment [14] it was -0.9 °C; in experiment [15], -0.8 °C; in experiment [16], -2.4 °C; in experiment [17], 0.7 °C; in experiment [18], -0.1 °C. Moreover, the ΔTm in experiment [19] was 1.5 °C; in [20], -0.9 °C; in experiment [21] it was -0.8 °C.
Consider `CCOc1cc2ncnc(Nc3cccc(Br)c3)c2cc1OCC`, for which the ΔTm was determined as 0.7 °C in experiment [1]; 0.8 °C in [2]; 0.4 °C in [3]; 0.2 °C in experiment [4]; 0 °C in experiment [5]; 1 °C in [6]. In addition, the thermal shift (ΔTm) was determined as 1.2 °C in experiment [7]; 0.6 °C in [8]; 2.8 °C in [9]; 0.6 °C in [10]; 0.2 °C in [11]; 1.3 °C in experiment [12]. Also, the ΔTm came to 1 °C in experiment [13]; 0.8 °C in [14]; 0.2 °C in [15]; 1.1 °C in experiment [16]; 0.2 °C in experiment [17]; 0.9 °C in experiment [18]. Moreover, the figures for the ΔTm in [19], in [20] and in [21] were 2.9 °C, 3.1 °C and 0.6 °C, respectively.
For the molecule `CCOC(=O)c1cnc2oc3ccc(O)cc3c2c1-c1ccccc1`, the thermal shift (ΔTm) in experiment [1] was 0.7 °C; in [2] it was 0.4 °C; in experiment [3], 1 °C; in [4], 0.1 °C; in experiment [5], -0.3 °C; in experiment [6] it was 3.5 °C. For the same molecule, the ΔTm was 1.2 °C in experiment [7]; 1.1 °C in experiment [8]; 4.3 °C in experiment [9]; 2.1 °C in experiment [10]; 0.2 °C in experiment [11]; -0.2 °C in experiment [12]. Moreover, the ΔTm in [13] came out at 1.3 °C; in experiment [14] it was 0.3 °C; in [15] it was 5.1 °C; in [16] it was 6.3 °C; in experiment [17], 1 °C; in experiment [18], 5.4 °C. The ΔTm is 2 °C in [19], 1.3 °C in [20] and 0.3 °C in experiment [21].
Consider `O=C1NC(=O)c2c1c1c3ccccc3n3c1c1c2c2ccccc2n1C1CCC3O1`, for which the thermal shift (ΔTm) in experiment [1] is -0.4 °C; in [2] it was 1.2 °C; in experiment [3], 0.2 °C; in experiment [4], -0.3 °C; in [5], -0.4 °C; in experiment [6] it was 1.7 °C. Also, the ΔTm was 0.2 °C in experiment [7]; 0.7 °C in experiment [8]; -0.2 °C in experiment [9]; 3.9 °C in experiment [10]; 0.5 °C in [11]; 1.5 °C in [12]. In addition, the ΔTm in experiment [13] is 0.7 °C; in [14], 1.5 °C; in experiment [15], 6.2 °C; in [16] it was 5.5 °C; in [17], -0.4 °C; in [18] it was 1.7 °C. The ΔTm was -0.4 °C in [19], 7.6 °C in [20] and 0.1 °C in [21].
On to `N#CC(C#N)=Cc1ccc(O)c(O)c1` [TYRPHOSTIN 23], for which the ΔTm in [1] was 0.2 °C; in experiment [2], 0.1 °C; in [3] it was 1.1 °C; in [4], 0.2 °C; in experiment [5], -0.1 °C; in experiment [6], 0.1 °C. For the same molecule, the ΔTm in [7] amounted to 0.4 °C; in experiment [8], 0.4 °C; in experiment [9], 0.8 °C; in [10] it was 0.1 °C; in experiment [11], 0.1 °C; in [12], 0.3 °C. The ΔTm in experiment [13] is 0.8 °C; in experiment [14], -0.2 °C; in [15] it was 1.5 °C; in experiment [16] it was 1 °C; in [17] it was 2.7 °C; in [18] it was 0.4 °C. The shift in melting temperature (ΔTm) in experiment [19] was 0.9 °C; in experiment [20] it was 0.2 °C; in experiment [21], 0.2 °C.
Regarding `COc1cc(O)c2c(c1)oc(=O)c1c3cc(O)c(O)cc3oc21` [WEDELOLACTONE], the ΔTm in experiment [1] is 1.2 °C; in experiment [2] it was 0.7 °C; in [3], -4.5 °C; in experiment [4], 0.6 °C; in experiment [5], -0.3 °C; in [6], 1.2 °C. Besides, the ΔTm in experiment [7] is 1 °C; in [8], 2.7 °C; in experiment [9] it was -0.4 °C; in [10] it was 0.8 °C; in experiment [11] it was 1.5 °C; in [12], 1.4 °C. Moreover, the ΔTm in experiment [13] was 1.9 °C; in experiment [14], -0.6 °C; in experiment [15], 3.4 °C; in experiment [16], 2.2 °C; in [17], 1 °C; in experiment [18], 0.1 °C. Also, the values for the shift in melting temperature (ΔTm) in experiment [19], in [20] and in experiment [21] were 3 °C, 1.3 °C and 1.2 °C, respectively.
